Source: US20230271969A1, “NITROGEN-CONTAINING FUSED RING DERIVATIVE INHIBITOR, PREPARATION METHOD THEREFOR AND USE THEREOF” (Shanghai Hansoh Biomedical Co., Ltd., priority 2020, published 2023)

Legend:
NK3 receptors [1] = target: T1, NK3 receptors (Homo sapiens, UniProt P29371); experiment: Calcium ion fluidity (FLIPR) in cells with stable expression of NK3 receptors; format: cell-based; conditions: calcium signal, antagonist mode, read-out: NK3R IC50 (nM) FLIPR
T1 construct: expressed in transfected cells
T1 sequence (P29371 1-465): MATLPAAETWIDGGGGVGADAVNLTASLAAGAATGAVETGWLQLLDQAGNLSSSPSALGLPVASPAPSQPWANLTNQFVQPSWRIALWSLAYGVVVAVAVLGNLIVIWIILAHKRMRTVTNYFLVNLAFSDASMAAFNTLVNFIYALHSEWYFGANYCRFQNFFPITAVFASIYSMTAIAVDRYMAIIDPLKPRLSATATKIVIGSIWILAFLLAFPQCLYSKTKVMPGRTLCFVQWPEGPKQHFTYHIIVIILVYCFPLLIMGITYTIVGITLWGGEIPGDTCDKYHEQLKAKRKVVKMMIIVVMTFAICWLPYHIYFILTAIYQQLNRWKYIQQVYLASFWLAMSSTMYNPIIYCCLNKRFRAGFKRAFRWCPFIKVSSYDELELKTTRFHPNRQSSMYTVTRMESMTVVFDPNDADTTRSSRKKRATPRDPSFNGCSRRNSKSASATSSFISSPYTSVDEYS
From the text: Determination of the Effect of the Compounds of the Present Invention on Calcium Ion Fluidity in Cells with Stable Expression of NK3 Receptors
Experimental objective: The objective of this test example was to determine the inhibitory effect of the compounds on NK3 receptors.
Experimental Methods: • 1. […] Probenecid and BSA were freshly added on the day of the experiment. The buffers for the experiments included dye buffer, compound dilution buffer and the like. • 2. […] The culture medium was discarded, and 20 μL of dye was added. The cells were incubated at 37° C. in the dark for 60 min, and then the calcium signal was read. • 4. The antagonist was prepared before the experiments. […] The plate was transferred to FLIPR, and 6× concentration of the agonist compound was added at 5 μL/well. The values were read and the data were saved by using FLIPR. The total assay volume was 30 μL, comprising 20 μL/well of dye buffer, 5 μL/well of 5× concentration of the experimental compound, and 5 μL/well of 6× concentration of the agonist compound.
The calcium signal value was read by FLIPR. The output of each sampling time point in the experiment was calculated as the ratio of the signals at wavelengths of 340/510 nm to 380/510 nm. The maximum minus minimum value was calculated from the ratio signal curve. The IC50 value of the compound was calculated by fitting the data of inhibition rate percentage and ten concentrations to the parametric nonlinear logistic equation by using GraphPad prism.

NK3 receptors [2] = target: T1, NK3 receptors; experiment: Antagonism of IP1 in HEK293 cells with stable expression of NK3; format: cell-based; conditions: agonist Senktide 3 nM, read-out: NK3R IC50 (nM) IP1
Protocol: Determination of the Effect of the Compounds of the Present Invention on IP1 in HEK293 Cells with Stable Expression of NK3
The objective of this test example was to determine the antagonism effect of the compounds on the activity of HEK293-NK3 cells.
3. Experimental Methods: • 1. […] HEK293-NK3 cell line was cultured in complete medium and seeded in the coated dishes at 37° C., 5% CO2 until 70%˜90% confluence. • 3. […] The cells were digested and resuspended in 1× Stimulation Buffer (IP-ONE Gq Kit), seeded into the 384-well cell culture plate (which contained the compound to be tested) at 5,000 cells/well/5 μL by using Multidrop Combi. The culture plate was centrifuged at 300 rpm at room temperature for 60 seconds, and then incubated at 37° C., 5% CO2 for 15 minutes. • 5. The cell culture plate was taken out from the CO2 incubator. […] The culture plate was centrifuged at 300 rpm at room temperature for 60 seconds, and then incubated at 37° C., 5% CO2 for 2 hours. • 6. The cell culture plate was taken out from the CO2 incubator. 5 μL of IP1 d2 reagent and then 5 μL of IP1 Tb Cryptate Antibody reagent were added by using Multidrop Combi. The culture plate was centrifuged at room temperature at 300 rpm for 60 seconds, and left to stand at room temperature for 1 hour. • 7. The plate was read by using EnVision Multilabel Reader, and data were collected at the same time.
The fluorescence signal ratio (Ratio) was read and collected by EnVision Multilabel Reader. According to the readings of the Low control (DMSO control) and High control (p)ositive compound) experimental groups, the antagonism percentage data were calculated as {% antagonism=(Ratio sample−Ratio low control)/(Ratio high control−Ratio low control)×100}.

| Structure (SMILES) | IC50 (NK3 receptors [1]) [nM] | IC50 (NK3 receptors [2]) [nM] |
| --- | --- | --- |
| C[C@@H]1c2nnc(-c3nc4ccc(C#N)cc4s3)n2CCN1C(=O)c1ccc(F)cc1 [Example 21, (R)-2-(7-(4-Fluorobenzoyl)-8-methyl-5,6,7,8-tetrahydro-[1,2,4]triazolo[4,3-a]pyrazin-3-yl)benzo[d]thiazol-6-carbonitrile] | 123 | 28.2 |
| COc1ccc2nc(-c3nnc4n3CCN(C(=O)c3ccc(Cl)cc3)[C@@H]4C)sc2c1 [Example 30, (R)-(4-Chlorophenyl)(3-(6-methoxybenzo[d]thiazol-2-yl)-8-methyl-5,6-dihydro-[1,2,4]triazolo[4,3-a]pyrazin-7(8H)-yl)methanone] | 47.4 | 187 |
| C[C@@H]1c2nnc(-c3nc4sccc4s3)n2CCN1C(=O)c1ccc(Cl)cc1 [Example 41, (R)-(4-Chlorophenyl)(8-methyl-3-(thieno[2,3-d]thiazol-2-yl)-5,6-dihydro-[1,2,4]triazolo[4,3-a]pyrazin-7(8H)-yl)methanone] | 224 |  |
| [2H]c1cc(C(=O)N2CCn3c(-c4nc5cc(Cl)c(F)cc5s4)nnc3[C@H]2C)ccc1F [Example 105, (R)-(3-(5-Chloro-6-fluorobenzo[d]thiazol-2-yl)-8-methyl-5,6-dihydro-[1,2,4]triazolo[4,3-a]pyrazin-7(8H)-yl)(4-fluorophenyl-3-d)methanone] | 268 | 108 |
| [2H]c1cc(C(=O)N2CCn3c(-c4nc5ccc(F)cc5s4)nnc3[C@H]2C)ccc1F [Example 61, (R)-(3-(6-Fluorobenzo[d]thiazol-2-yl)-8-methyl-5,6-dihydro-[1,2,4]triazolo[4,3-a]pyrazin-7(8H)-yl)(4-fluorophenyl-3-d)methanone] | 78.9 | 108 |
| C[C@@H]1c2nnc(-c3nc4sccc4s3)n2CCN1C(=O)c1ccc(F)cc1 [Example 40, (R)-(4-Fluorophenyl)(8-methyl-3-(thieno[2,3-d]thiazol-2-yl)-5,6-dihydro-[1,2,4]triazolo[4,3-a]pyrazin-7(8H)-yl)methanone] | 298 |  |
| C[C@@H]1c2nnc(-c3nc4c(F)cc(F)cc4s3)n2CCN1C(=O)c1ccc(Cl)cc1 [Example 16, (R)-(4-Chlorophenyl)(3-(4,6-difluorobenzo[d]thiazol-2-yl)-8-methyl-5,6-dihydro-[1,2,4]triazolo[4,3-a]pyrazin-7(8H)-yl)methanone] |  | 146 |
| C[C@@H]1c2nnc(-c3nc(N(C)C)ns3)n2CCN1C(=O)c1ccc(F)cc1 [Example 60, (R)-(3-(3-(Dimethylamino)-1,2,4-thiadiazol-5-yl)-8-methyl-5,6-dihydro-[1,2,4]triazolo[4,3-a]pyrazin-7(8H)-yl)(4-fluorophenyl)methanone] | 205 | 190 |
| C[C@@H]1c2nnc(-c3nc4ccc(Cl)cc4s3)n2CCN1C(=O)c1ccc(Cl)cc1 [Example 20, (R)-(3-(6-Chlorobenzo[d]thiazol-2-yl)-8-methyl-5,6-dihydro-[1,2,4]triazolo[4,3-a]pyrazin-7(8H)-yl)(4-chlorophenyl)methanone] | 61 | 27.3 |
| Cc1ccc2nc(-c3nnc4n3CCN(C(=O)c3ccc(F)cc3)[C@@H]4C)sc2c1 [Example 24, (R)-(4-Fluorophenyl)(8-methyl-3-(6-methylbenzo[d]thiazol-2-yl)-5,6-dihydro-[1,2,4]triazolo[4,3-a]pyrazin-7(8H)-yl)methanone] | 45.6 | 49.5 |
| C[C@@H]1c2nnc(-c3nc4cc(F)cc(F)c4s3)n2CCN1C(=O)c1ccc(F)cc1 [Example 18, (R)-(3-(5,7-Difluorobenzo[d]thiazol-2-yl)-8-methyl-5,6-dihydro-[1,2,4]triazolo[4,3-a]pyrazin-7(8H)-yl)(4-fluorophenyl)methanone] | 130 |  |
| [2H]c1cc(C(=O)N2CCn3c(-c4nc5ccc(Cl)cc5s4)nnc3[C@H]2C)ccc1Cl [Example 102, (R)-(3-(6-Chlorobenzo[d]thiazol-2-yl)-8-methyl-5,6-dihydro-[1,2,4]triazolo[4,3-a]pyrazin-7(8H)-yl)(4-chlorophenyl-3-d)methanone] | 32.5 | 16.4 |
| C[C@@H]1c2nnc(-c3nc4ccccc4s3)n2CCN1C(=O)c1ccc(F)cc1 [Example 1, (R)-(3-(Benzo[d]thiazol-2-yl)-8-methyl-5,6-dihydro-[1,2,4]triazolo[4,3-a]pyrazin-7 (8H)-yl)(4-fluorophenyl)methanone] | 76.2 |  |
| [2H]c1c([2H])c(C(=O)N2CCn3c(-c4nc(C([2H])([2H])[2H])ns4)nnc3[C@H]2C)c([2H])c([2H])c1F [Example 50, (R)-(4-Fluorophenyl-2,3,5,6-d4)(8-methyl-3-(3-(methyl-d3)-1,2,4-thiadiazol-5-yl)-5,6-dihydro-[1,2,4]triazolo[4,3-a]pyrazin-7(8H)-yl)methanone] | 147 |  |
| C[C@@H]1c2nnc(-c3nc4ccc(Cl)nc4s3)n2CCN1C(=O)c1ccc(F)cc1 [Example 38] | 247 |  |
| [2H]c1cc(C(=O)N2CCn3c(-c4nc(Cl)cs4)nnc3[C@H]2C)ccc1F [Example 121, (R)-(3-(4-Chlorothiazol-2-yl)-8-methyl-5,6-dihydro-[1,2,4]triazolo[4,3-a]pyrazin-7 (8H)-yl)(4-fluorophenyl-3-d)methanone] |  | 132 |
| C[C@@H]1c2nnc(-c3cc4ccccn4n3)n2CCN1C(=O)c1ccc(Cl)c(Cl)c1 [Example 46, (R)-(3,4-Dichlorophenyl)(8-methyl-3-(pyrazolo[1,5-a]pyridin-2-yl)-5,6-dihydro-[1,2,4]triazolo[4,3-a]pyrazin-7(8H)-yl)methanone] | 107 |  |
| C[C@@H]1c2nnc(-c3nc4ccccc4s3)n2CCN1C(=O)c1ccc(-c2cccs2)cc1 [Example 5, (R)-(3-(Benzo[d]thiazol-2-yl)-8-methyl-5,6-dihydro-[1,2,4]triazolo[4,3-a]pyrazin-7 (8H)-yl)(4-(thien-2-yl)phenyl)methanone] | 159 |  |
| C[C@@H]1c2nnc(-c3nc4ccsc4s3)n2CCN1C(=O)c1ccc(Cl)c(Cl)c1 [Example 44, (R)-(3,4-Dichlorophenyl)(8-methyl-3-(thieno[3,2-d]thiazol-2-yl)-5,6-dihydro-[1,2,4]triazolo[4,3-a]pyrazin-7(8H)-yl)methanone] | 255 |  |
| C[C@@H]1c2nnc(-c3nc(N(C)C4CC4)ns3)n2CCN1C(=O)c1ccc(F)cc1 [Example 115, (R)-(3-(3-(Cyclopropyl(methyl)amino)-1,2,4-thiadiazol-5-yl)-8-methyl-5,6-dihydro-[1,2,4]triazolo[4,3-a]pyrazin-7(8H)-yl)(4-fluorophenyl)methanone] |  | 76.6 |
| [2H]c1cc(C(=O)N2CCn3c(-c4nc(N5CC(F)C5)cs4)nnc3[C@H]2C)ccc1F [Example 117, (R)-(3-(4-(3-Fluoroazetidin-1-yl)thiazol-2-yl)-8-methyl-5,6-dihydro-[1,2,4]triazolo[4,3-a]pyrazin-7(8H)-yl)(4-fluorophenyl-3-d)methanone] |  | 116 |
| [2H]C([2H])([2H])N(c1nsc(-c2nnc3n2CCN(C(=O)c2ccc(F)cc2)[C@@H]3C)n1)C([2H])([2H])[2H] [Example 106, (R)-(3-(3-(Bis(methyl-d3)amino)-1,2,4-thiadiazol-5-yl)-8-methyl-5,6-dihydro-[1,2,4]triazolo[4,3-a]pyrazin-7(8H)-yl)(4-fluorophenyl)methanone] |  | 129 |
